{
  "source": "patent US10774122B2",
  "about": "“ERG targeted therapy” (The Regents of the University of Michigan, priority 2017, dated 2020)",
  "key": {"CD31^+ vessels": {"test_system": "CD31^+ vessels", "parameters": "species or system mice", "settings": "mouse, in vivo", "description": "(M) The quantitative data of IHC staining."}, "VCaP cells [1]": {"test_system": "VCaP cells", "type": "cell-based", "method": "The samples were treated with SDS loading buffer supplied with 10 mM DTT for 5 min at 85° C. The proteins were alkylated by adding iodoacetamide to the final concentration of 15 mM. The samples were subjected to SDS-PAGE and the whole lanes were cut out and digested with trypsin in-gel for 2 hours. The resulting peptides were extracted, dried and resuspended in 0.1% formic acid with 5% acetonitrile prior to loading onto a trap EASY-column (Thermo Scientific) coupled to an in-house made nano HPLC column (20 cm×75 um) packed with LUNA C18 media. Analysis was performed on Velos Pro mass spectrometer (Thermo Scientific) operated in data-dependent mode using 90-min gradients in EASY-LC system (Proxeon) with 95% water, 5% acetonitrile (ACN), 0.1% formic acid (FA) (solvent A), and 95% ACN, 5% water, 0.1% FA (solvent B) at a flow rate of 220 nl/min. […]\nThe resulting spectrum files were transformed into MGF format by MSConvert software and interrogated by MASCOT 2.4 search engine using human UniProt database version 15 concatenated with reverse sequences for estimation of false discovery rate (FDR) and with a list of common contaminants. […] The peptide FDR was calculated as 2×(decoy_hits)/(target+decoy hits). Spectral counts for all detected proteins were assembled using an in-house written Python script. […]"}, "ERG": {"target": "T1, ERG (Homo sapiens, UniProt P11308)", "T1 sequence (P11308 1-479)": "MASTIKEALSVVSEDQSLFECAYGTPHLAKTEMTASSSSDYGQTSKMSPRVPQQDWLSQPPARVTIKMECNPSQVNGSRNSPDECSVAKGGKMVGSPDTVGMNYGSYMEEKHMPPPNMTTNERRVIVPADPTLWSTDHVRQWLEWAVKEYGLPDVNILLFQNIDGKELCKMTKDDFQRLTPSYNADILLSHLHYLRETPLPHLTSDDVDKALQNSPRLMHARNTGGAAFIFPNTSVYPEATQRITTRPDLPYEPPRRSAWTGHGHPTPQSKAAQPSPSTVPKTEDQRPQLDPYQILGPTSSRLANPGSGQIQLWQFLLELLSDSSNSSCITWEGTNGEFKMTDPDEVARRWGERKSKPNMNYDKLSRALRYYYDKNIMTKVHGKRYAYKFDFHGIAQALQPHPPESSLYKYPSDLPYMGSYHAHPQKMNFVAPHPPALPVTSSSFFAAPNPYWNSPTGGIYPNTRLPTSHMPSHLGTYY", "assay": "ERG:peptide binding by biolayer interferometry (OctetRED)", "quoted_text": "The interaction coefficients between ERG and synthetic peptides or peptidomimetics were determined by biolayer interferometry technology using the Octet Red system (ForteBio). Purified ERG and GUS proteins were biotinylated by EZLink NHS-PEG4 Biotinylation Kit (Thermo Scientific) following the manufacturer's protocol and any unincorporated biotin was removed from the reactions with Zeba 2 ml desalt columns (Thermo). Biotinylated proteins (500 μg/ml) were then incubated with super streptavidin biosensors in binding buffer (20 mM HEPES pH 7.4, 150 mM NaCl), blocked with 10 μg/ml biocytin and washed three times in binding buffer. Peptides were serially diluted in binding buffer, mixed with the protein-coupled biosensors and peptidomimetic:protein association/dissociation was monitored for 10 min at 25° C. Nonspecific binding from the signal obtained from peptidomimetic:GUS interactions was subtracted from that of peptidomimetic:ERG interactions and baseline signal drift was controlled by monitoring immobilized ERG without peptide. Octet Red analysis software was used to analyze the data."}, "[2]": {"test_system": "VCaP (ERG fusion-positive) xenografts", "assay": "VCaP xenograft mouse model, tumor growth", "quoted_text": "Athymic Nude-Foxnlnu male mice were procured from Harlan Laboratories, Inc (Indianapolis, Ind.). All procedures involving mice were approved by the University Committee on Use and Care of Animals (UCUCA) at the University of Michigan and conformed to their relevant regulatory standards. […] Statistical significance for Kaplan-Meier analysis was determined by the log-rank (Mantel-Cox) test.\nAthymic Nude-Foxnlnu male mice were procured from Harlan Laboratories, Inc. (Indianapolis, Ind.). VCaP (2×10^6 cells) or PC3 (5×10^5 cells) were resuspended in 100 μl of saline with 50% Matrigel (BD Biosciences, Becton Drive, NJ) and implanted subcutaneously into the flank regions on both sides of the mice. Mice were anesthetized using a cocktail of xylazine (80-120 mg/kg, IP) and ketamine (10 mg/kg, IP) for chemical restraint before tumor cells implantation. For short term assays, all tumors were staged for three weeks before starting peptidomimetic treatment. After week 3 (VCaP cells) or 12 days (PC3 cells), mice (10 per treatment group) were treated with peptidomimetics (25 mg/kg or 10 mg/kg as indicated, IP) daily five times a week.\nTumor growth was recorded every three days using digital calipers and tumor volumes were calculated using the formula (π/6) (L×W2), where L=length of tumor and W=width. Body weight was monitored weekly over the course of the study. At the end of the xenograft studies, mice were anaesthetized and blood was collected by cardiac puncture and tumors were preserved for further biochemical and immunofluorescence analysis. […] Survival analysis was carried out using the GraphPad Prism 4.0 software (GraphPad Software, San Diego, Calif.). Statistical significance for Kaplan-Meier analysis was determined by the log-rank (Mantel-Cox) test. All procedures involving mice were approved by the University Committee on Use and Care of Animals (UCUCA) at the University of Michigan and conform to their relevant regulatory standards."}, "VCaP cells [3]": {"test_system": "VCaP cells", "parameters": "species or system chicken embryo", "settings": "in vivo, 25 mg/kg", "method": "The CAM assays were performed as described previously (Brenner et al., 2011; supra). Briefly, fertilized eggs were incubated in a rotary humidified incubator at 38° C. for 10 days. First the CAM was released by applying mild pressure to the hole over the air sac and cutting a square 1 cm^2 window encompassing a second hole near the allantoic vein. Then cultured VCaP cells that stably express Cherry Red and pre-treated with peptidomimetics as indicated were detached by trypsinization and re-suspended in complete medium and 2×10^6 cells were implanted adjacent to the mesenchyme in each egg. The windows were subsequently sealed and the eggs were returned to a stationary incubator. For invasion and intravasation experiments, implanted eggs were treated with 25 mg/kg body weight of the peptidomimetics 6 hrs after inoculation and both the upper and lower CAM were isolated after 72 hr. Invasive cells were processed and stained for chicken collagen IV as previously described (Brenner et al., 2011; supra). […] The embryonic lungs were harvested and analyzed for the presence of tumor cells by quantitative human alu-specific PCR. […] Quantification of human cells in the extracted DNA was carried out as described (van der Horst et al., Biotechniques 37, 940-942, 944, 946 2004). Fluorogenic TaqMan qPCR probes were used as described above, and DNA copy numbers were quantified."}, "ERG protein": {"target": "ERG protein (Homo sapiens, UniProt P11308)", "settings": "mouse, in vivo", "quoted_text": "VCaP cells were seeded in 6-well plates at 0.5×10^6 cells/ml and after allowing cells to attach, cells were harvested and homogenized in NP40 lysis buffer (Sigma) containing a complete protease inhibitor cocktail (Roche). Ten micrograms of each protein extract was boiled in SDS sample buffer, size fractionated by SDS-PAGE, and transferred onto a PVDF membrane (GE Healthcare). […] Following three washes in TBS-T, the blots were incubated with horseradish peroxidase conjugated secondary antibody and the signals visualized by enhanced chemiluminescence system according to manufacturer's instructions (GE Healthcare).\nCell pellets or tumors treated with or without the peptidomimetics were lysed in cell lysis buffer (20 mM MOPS, pH 7.0, 2 mM EGTA, 5 mM EDTA, 30 mM sodium fluoride, 60 mM β-glycerophosphate, 20 mM sodium pyrophosphate, 1 mM sodium orthovanadate, 1% Triton X-100, 1 mM DTT, protease inhibitor cocktail (Roche)). Cell lysates (0.5-1.0 mg) were pre-cleaned with protein A/G agarose beads (Santa Cruz) by incubation for 1 hour with shaking at 4° C. followed by centrifugation at 2000 rpm for 3 minute. Lysates were then incubated with 2 μg ERG antibody (Santa Cruz, C-17) at 4° C. for 4 hours with shaking prior to addition of 20 μl protein A/G agarose beads and incubated at 4° C. overnight. […] Samples were then analyzed by SDS-PAGE and Western blot analysis as described above."}, "[4]": {"test_system": "ERG targets such as TDRD1, ARHGDIB, NDRG1 and CACNA1D", "parameters": "species or system mice", "settings": "mouse, in vivo", "method": "Total RNA was isolated from VCaP cells and tumors using Qiazol following the manufacturer's protocol (Qiagen). Quantitative PCR (QPCR) was performed using SYBR Green dye on an Applied Biosystems 7300 Real Time PCR system (Applied Biosystems) as described (Tomlins et al., 2005). Briefly, 2 μg of total RNA was reverse transcribed into cDNA using SuperScript III (Invitrogen) in the presence of random primers (Invitrogen). All reactions were performed in triplicate with SYBR Green Master Mix (Applied Biosystems) and 25 ng of forward and reverse primer according to the manufacturer's recommended thermocycling conditions, and then subjected to melt curve analysis. Threshold levels for each experiment were set during the exponential phase of the QPCR reaction using Sequence Detection Software version 1.2.2 (Applied Biosystems). The relative quantity of the target gene was calculated for each sample using the ΔΔCt method by the comparing mean Ct of the gene to the average Ct of the housekeeping gene, […] (Livak and Schmittgen, 2001). All oligonucleotide primers were synthesized by Integrated DNA Technologies (Coralville, Iowa). The primer sequences for the transcript analyzed were previously described (Brenner et al., 2011; supra)."}},
  "note": "Where a SMILES comes first, the peptide text is derived from it. [ ]: non-standard residue; d: D form.",
  "data": [
    {"smiles": "CC(C)C[C@@H](NC(=O)[C@H]1CCCN1C(=O)[C@H]1CCCN1C(=O)[C@@H](Cc1ccc(O)cc1)NC(=O)[C@@H](CC(C)C)NC(=O)[C@@H](Cc1ccccc1)NC(=O)[C@H](NC(=O)CNC(=O)CNC(=O)[C@@H](CCCNC(=N)N)NC(=O)[C@@H](CCCCN)NC(=O)[C@@H](CCCCN)NC(=O)[C@@H](CCCNC(=N)N)NC(=O)[C@@H](CCCNC(=N)N)NC(=O)[C@@H](CCC(N)=O)NC(=O)[C@@H](CCCNC(=N)N)NC(=O)[C@@H](CCCNC(=N)N)NC(=O)[C@@H](CCCNC(=N)N)NC(=O)CN)[C@H](C)O)C(=O)O", "note": "[RI-EIP1] (H-G[dR][dR][dR][dQ][dR][dR][dK][dK][dR]GG[dT][dF][dL][dY][dP][dP][dL]-OH)", "values": [
      {"measurement": "angiogenesis by number of CD31^+ vessels in FFPE sections", "setting": "CD31^+ vessels", "result": "did not alter angiogenesis"},
      {"measurement": "depletion of ERG among 3020 proteins identified", "setting": "VCaP cells [1]", "result": "most significantly depleted"},
      {"measurement": "Kd", "setting": "ERG", "result": 940, "unit": "nM"},
      {"measurement": "recurrences after additional 30 days without therapy", "setting": "[2]; 25 mg/kg group", "result": "no recurrences were observed"},
      {"measurement": "tumors completely regressed with no palpable tumor", "setting": "[2]; 25 mg/kg, day 18", "result": 10, "unit": "%"},
      {"measurement": "tumors with no signs of recurrence", "setting": "[2]; 25 mg/kg, extended treatment, day 30", "result": 35, "unit": "%"},
      {"measurement": "tumor growth, additional VCaP xenograft studies", "setting": "[2]; 1, 5 and 25 mg/kg, effect at 25 mg/kg relative to control", "result": "significant suppression"},
      {"measurement": "VCaP tumor growth", "setting": "[2]; 10 or 25 mg/kg per day, day 18, relative to mutant peptide, p<0.01", "result": "dose-dependent reduction"},
      {"measurement": "ERG-mediated invasion and intravasation", "setting": "VCaP cells [3]", "result": "dramatically blocked"},
      {"measurement": "ERG protein in VCaP xenograft tumors", "setting": "ERG protein", "result": "substantial degradation"},
      {"measurement": "gene expression of ERG targets in VCaP tumors", "setting": "[4]", "result": "inhibited"}
    ]}
  ]
}
